Reference: patent US8536187B2 (Gilead Sciences, Inc., priority 2008, dated 2013)

Experiments:
[1] = test system: HCV replicon in human hepatoma Huh-7 cell line; assay: Anti-HCV replicon assay, EC50 (luciferase luminescence); type: cell-based; settings: Hepatitis C virus, Huh-7, 72 h
Method in brief: (§1)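 Huh-7 cells carrying HCV replicon (6000/well) incubated with serially diluted compound, 0.5% DMSO final, 3 days at 37° C, 5% CO2. EC50 from luciferase luminescence after 30 min lysis/substrate at room temperature; CC50 from CellTiter-Glo luminescence after 10 min at room temperature.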

[2] = CC50 assay (CellTiter-Glo) in Huh-7 HCV replicon cells; type: cell-based; settings: human
Method in brief: as §1

SMILES | EC50 [1] [nM] | CC50 at 3 days ([2]; Table 1, 3 days incubation) [nM] | CC50 at 3 days ([2]; Table 2, 3 days incubation) [nM]
CS(=O)(=O)c1cccc(-c2ccc3nc(NCc4ccc(S(N)(=O)=O)cc4)nc(NCC(F)(F)F)c3n2)c1 [Example 15, 4-{[6-(3-Methanesulfonyl-phenyl)-4-(2,2,2-trifluoro-ethylamino)-pyrido[3,2-d]pyrimidin-2-ylamino]-methyl}-benzenesulfonamide] | < 100 | > 25000 | –
Fc1ccc(-c2ccc3nc(NCc4ccc(-n5ccnc5)cc4)nc(NC4(C(F)(F)F)CC4)c3n2)cc1 [Example 126, N^2-(4-(1H-imidazol-1-yl)benzyl)-6-(4-fluorophenyl)-N^4-(1-(trifluoromethyl)cyclopropyl)pyrido[3,2-d] pyrimidine-2,4-diamine] | 250 to 2000 | – | 1000 to 10000
Cc1cc(S(N)(=O)=O)ccc1[C@@H](C)Nc1nc(NC2(C(F)(F)F)CC2)c2nc(-c3ccc(F)cc3)ccc2n1 [Example 117, (R)-4-(1-(6-(4-fluorophenyl)-4-(1-(trifluoromethyl)cyclopropyl-amino)pyrido[3,2-d]pyrimidin-2-ylamino)ethyl)-3-methylbenzene-sulfonamide] | < 100 | – | > 10000
FC(F)(F)CNc1nc(NCc2ccc(-n3cncn3)cc2)nc2ccc(-c3cnc(OC4CC4)nc3)nc12 [Example 253, N^2-(4-(1H-1,2,4-triazol-1-yl)benzyl)-6-(2-cyclopropoxy-pyrimidin-5-yl)-N^4-(2,2,2-trifluoroethyl)pyrido[3,2-d] pyrimidine-2,4-diamine] | < 100 | – | > 10000
CC1(Oc2nc(NCc3ccc(-n4cncn4)cc3)nc3ccc(-c4ccc(OC5CC5)nc4)nc23)CC1 [Example 247, N-(4-(1H-1,2,4-triazol-1-yl)benzyl)-6-(6-cyclopropoxy-pyridin-3-yl)-4-(1-methylcyclo-propoxy)pyrido[3,2-d]pyrimidin-2-amine] | < 100 | – | 1000 to 10000
